Experiments:
Mino cells = assay: PARP cleavage; format: cell-based, human; conditions: 50 µM, 72 h, immunoblot
Jeko cells = assay: PARP cleavage; format: cell-based, human; conditions: 50 µM, 72 h, immunoblot
XBP-1s expression [1] = assay: Inhibition of XBP-1s expression in Jeko cells; format: cell-based, human; conditions: 20 µM, 24 h, immunoblot
XBP-1s expression [2] = assay: Inhibition of XBP-1s expression in Mino cells; format: cell-based, human; conditions: 20 µM, 24 h, immunoblot
XBP-1s expression [3] = assay: Inhibition of XBP-1s expression in LPS-stimulated wild-type mouse B cells; format: cell-based; conditions: immunoblot
[4] = Chemical stability in FRET-suppression assay buffer; conditions: rt, over 12 hours, LCMS
[5] = target: recombinant human IRE-1 (RNase activity) (Homo sapiens, UniProt O75460); assay: In vitro IRE-1 RNase FRET-suppression assay; format: biochemical; conditions: up to 20 µM
Chain of recombinant human IRE-1 (RNase activity) (O75460 547-977): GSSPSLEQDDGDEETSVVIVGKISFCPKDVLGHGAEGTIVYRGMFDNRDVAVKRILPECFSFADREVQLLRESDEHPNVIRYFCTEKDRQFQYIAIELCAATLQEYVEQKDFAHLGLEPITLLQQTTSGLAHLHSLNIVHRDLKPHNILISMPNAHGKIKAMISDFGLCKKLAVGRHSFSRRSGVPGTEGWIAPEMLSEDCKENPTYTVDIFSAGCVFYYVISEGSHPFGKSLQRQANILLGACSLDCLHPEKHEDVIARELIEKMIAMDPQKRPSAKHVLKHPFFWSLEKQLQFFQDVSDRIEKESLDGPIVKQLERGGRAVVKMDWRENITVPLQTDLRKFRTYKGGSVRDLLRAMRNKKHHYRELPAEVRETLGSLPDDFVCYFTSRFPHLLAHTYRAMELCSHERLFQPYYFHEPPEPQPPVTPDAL

Structure (SMILES): CN1CCc2c(c(=O)oc3c(C=O)c(O)ccc23)C1 [Compound 30, 8-Hydroxy-3-methyl-5-oxo-2,3,4,5-tetrahydro-1H-chromeno[3,4-c]pyridine-7-carbaldehyde]
- PARP cleavage (Mino cells): more strongly than either 21b or 5
- PARP cleavage (Jeko cells): more strongly than either 21b or 5

Structure (SMILES): C=C(C)CN1CCc2c(c(=O)oc3c(C=O)c(O)ccc23)C1 [Compound 33, 8-Hydroxy-3-(2-methylallyl)-5-oxo-2,3,4,5-tetrahydro-1H-chromeno[3,4-c]pyridine-7-carbaldehyde]
- suppression of XBP-1s expression (XBP-1s expression [1]): significant activity
- suppression of XBP-1s expression (XBP-1s expression [2]): significant activity

Structure (SMILES): O=Cc1c(O)ccc2ccccc12 [Compound 2]
- inhibition of XBP-1s expression (XBP-1s expression [3]; 50 µM): strong inhibition

Structure (SMILES): Cc1cc(=O)oc2c(C=O)c(O)ccc12 [Compound 5]
- inhibition of XBP-1s expression (XBP-1s expression [3]; 20 µM, 24 h): strong inhibition

Structure (SMILES): C=CCOC(=O)N1CCc2c(c(=O)oc3c(C4OCCCO4)c(O)ccc23)C1 [Compound 24, Allyl 7-(1,3-dioxan-2-yl)-8-hydroxy-5-oxo-4,5-dihydro-1H-chromeno[3,4-c]pyridine-3(2H)-carboxylate]
- decomposition of the 1,3-dioxane moiety [4]: no significant decomposition

Structure (SMILES): C=CCOC(=O)N1CCc2c(c(=O)oc3c(C=O)c(OCc4ccccc4)ccc23)C1 [Compound 27, Allyl 7-formyl-8-benzyloxy-5-oxo-4,5-dihydro-1H-chromeno[3,4-c]pyridine-3(2H)-carboxylate]
- IRE-1 RNase inhibition (in words) [5]: complete loss of potency below 20 µM

Structure (SMILES): NS(=O)(=O)c1cccs1 [Compound 8, reference compound]
- IRE-1 RNase inhibition (in words) [5]: no appreciable inhibition
